Results reported in patent US20200115446A1 (NATIONAL UNIVERSITY CORPORATION HOKKAIDO UNIVERSITY, priority 2017, published 2020).
“Also recorded” adds a separate entry of the source.

Columns and labels:
Assay type in all cases: in vivo, rat
serum TRACP-5b [1] = assay: Bone resorption marker (serum TRACP-5b) by ELISA, pediatric steroid-induced osteoporosis model rats; settings: after 6 weeks (age of 12 weeks)
Procedure: (§1) 6-week-old growing female LEW/Cr1Crlj rats were used.
(§2) On the other hand, a steroid-induced osteoporosis model with rats has not been established. Thus, in this Example, a model rat with Prednisolone 25 mg/pellet/60 days implanted under the skin of a 6-week-old female LEW/Cr1Crlj rat was employed as a pediatric steroid-induced osteoporosis model. In this model, it was confirmed that 2, 4 and 6 weeks after implantation of prednisolone, the femur BMD decreased, and the maximum stress of each of the femur and the lumber vertebra decreased.
(§3) (3) Experimental Group (n=10 in Each Group) (i) Sham group: Sham-operation+Vehicle (PBS) (subcutaneous administration) (ii) GC group: Prednisolone (PSL) pellet 25 mg/pellet/60 days-subcutaneous implantation (GC)+Vehicle (PBS) (subcutaneous administration) (iii) GC+Siglec-15Ab group: GC treatment was performed, and an anti-Siglec-15 antibody was subcutaneously administered once every 3 weeks at a dosage of 1 mg/kg (low dosage) or at a dosage of 10 mg/kg (high dosage). The #32A1 antibody was used as the anti-Siglec-15 antibody. […]
(§4) Before the start of administration, and 6 weeks after administration and before euthanasia, blood was collected from the tail vein, and the values of a bone formation marker (serum osteocalcin) and a bone resorption marker (serum TRACP-5b) in the blood were measured by an ELISA method.

[2] = Confirmation of the prednisolone pellet model of pediatric steroid-induced osteoporosis; settings: 2, 4 and 6 weeks after implantation of Prednisolone 25 mg/pellet/60 days
Procedure: as §2
Prednisolone 25 mg/pellet/60 days is administered at a dose of 0.42 mg a day. This dose is equivalent to 3.5 mg/kg/day for a 6-week-old rat (body weight: 120 g), and equivalent to 105 mg/day for a child having a body weight of 30 kg.

[3] = Head trunk length and femur length, growing healthy rats; settings: age of 12 weeks, vs. Ct1 group
Procedure: (§5) 6-week-old growing male F344 rats were used.
(§6) (2) Experimental Groups (n=10 in Each Group) (i) Control group (hereinafter, referred to as “Ct1 group”) (ii) Anti-Siglec-15 antibody administration group (hereinafter, referred to as “Sig-15 Ab administration group”): The #32A1 antibody was used as an anti-Siglec-15 antibody. The anti-Siglec-15 antibody was subcutaneously administered once every 3 weeks at a dosage of 0.25, 1 or 4 mg/kg.
(§7) 6 weeks after the start of administration (age of 6 weeks to age of 12 weeks). After the end of the period (age of 12 weeks), the animals were euthanized, and evaluation was performed.
(§8) The head trunk length was measured 0, 3 and 6 weeks after administration. The body weight was measured once a week.
(§9) The femur length was measured under anesthesia every 3 weeks by micro-CT imaging.
(§10) Micro-CT imaging of the femur, the tibia and the fifth lumber vertebra was performed, and the right femur major axis length was measured.

serum TRACP-5b [4] = assay: Bone resorption marker (serum TRACP-5b) by ELISA, growing healthy rats; settings: age of 12 weeks
Procedure: as §5, §6, §7
(§11) Before the start of administration, and 6 weeks after administration and before euthanasia, blood was collected from the tail vein, and the values of a bone formation marker (serum osteocalcin) and a bone resorption marker (serum TRACP-5b) were measured by an ELISA method.

serum osteocalcin [5] = assay: Bone formation marker (serum osteocalcin) by ELISA, growing healthy rats; settings: age of 12 weeks, vs. Ct1 group
Procedure: as §5, §6, §7, §11

[6] = test system: growth cartilage and primary spongiosa region; assay: Micro-CT and histological evaluation of growth at the proximal tibia, growing healthy rats
Procedure: as §5, §6, §7
For bone labeling, calcein was administered 7 days before and 3 days before euthanasia (at an interval of 4 days). The calcein was dissolved in a 1.4% sodium bicarbonate solution at a concentration of 10 mg/ml, and subcutaneously injected to each animal at a dosage of 10 mg/kg.
as §10
Non-decalcified hard tissue sample: a coronal section tissue of proximal left tibia ½ (length: about 1.5 cm) was used. The tissue was immersed and fixed in 70% ethanol, and then stored in a cool and dark place. The resulting non-decalcified hard tissue sample was used for Villanueva staining, bright-field observation and fluorescent observation, and quantitative bone morphometry.
(§12) Decalcified tissue sample: knee joint disarticulation was performed, and samples of a coronal section tissue of the proximal tibia (proximal right knee tibia ½) and a fifth lumber vertebra coronal section tissue were prepared.
With the non-decalcified hard tissue sample and the decalcified tissue sample, the growth cartilage plate width and the longitudinal growth rate were histologically measured to evaluate growth disorder (“Modern Bone Histomorphometry”, 2014, WENET, Inc.).
(§13) Osteoclastic cells were detected and evaluated by chemical staining with tartrate-resistant acid phosphatase (TRACP) (hereinafter, referred to as “TRACP staining”) and counter staining with methyl green. The growth cartilage part was detected and evaluated by safranine O staining (staining of acidic mucopolysaccharide).

osteoclasts [7] = assay: TRACP staining of osteoclasts, growing healthy rats; settings: age of 12 weeks, vs. Ct1 group
Procedure: as §5, §6, §7, §12, §13

[8] = Bone mass (micro-CT) and bone mineral density (DXA), growing healthy rats; settings: for BMD value (DXA) / trabecular bone mass (3D-CT): vs. Ct1 group
Procedure: as §5, §6, §7, §10
BMD measurement of the lumber vertebra (first to third lumber vertebrae) and the left distal femur end was performed by dual energy X-ray absorptiometric (DXA) method using a bone mineral density measuring apparatus (manufactured by Hitachi Aloka Medical, Ltd.).

[9] = Compression mechanical test of lumber vertebral body and distal femur metaphysis, growing healthy rats; settings: age of 12 weeks, vs. Ct1 group
Procedure: as §5, §6, §7
The second, third, fourth and sixth lumber vertebral bodies and the distal metaphysis of the left femur were subjected to a compression test, and the ultimate load (maximum load endured before fracture), stiffness (resistance to deformation) and toughness (energy required before fracture) were evaluated.

[10] = Body weight, head trunk length and femur length, pediatric steroid-induced osteoporosis model rats; settings: GC model rats
Procedure: as §1, §2
(§14) (3) Experimental Group (n=10 in Each Group) (i) Sham group: Sham-operation+Vehicle (PBS) (subcutaneous administration) (ii) GC group: Prednisolone (PSL) pellet 25 mg/pellet/60 days-subcutaneous implantation (GC)+Vehicle (PBS) (subcutaneous administration) (iii) GC+Siglec-15Ab group: GC treatment was performed, and an anti-Siglec-15 antibody was subcutaneously administered once every 3 weeks at a dosage of 1 mg/kg (low dosage) or at a dosage of 10 mg/kg (high dosage). The #32A1 antibody was used as the anti-Siglec-15 antibody.
as §7, §8, §9
(§15) Micro-CT imaging of the femur and the tibia was performed, and the right femur length was measured.

serum osteocalcin [11] = assay: Bone formation marker (serum osteocalcin) by ELISA, pediatric steroid-induced osteoporosis model rats; settings: GC model rats, age of 12 weeks, vs. GC group
Procedure: as §1, §2, §3, §4

[12] = test system: growth cartilage and primary spongiosa region; assay: Micro-CT and histological evaluation of growth at the proximal tibia, pediatric steroid-induced osteoporosis model rats; settings: GC model rats
Procedure: as §1, §2, §14, §7
For bone labeling, tetracycline was administered 5 days before euthanasia, and calcein was administered 2 days before euthanasia (at an interval of 3 days). The animals were killed 36 hours after calcein administration. […]
as §15
Non-decalcified hard tissue sample: a coronal section tissue of proximal left tibia ½ (length: about 1.5 cm) was used. […] The non-decalcified hard tissue sample was stained by Villanueva staining and was used for bright-field observation and fluorescent observation, and quantitative bone morphometry. […]
Regarding growth disorder, there was the possibility that administration over a period of 6 weeks would not cause a change leading to generation of a difference in femur length, and therefore the growth cartilage plate width and the longitudinal growth rate were histologically measured using the non-decalcified tissue and the decalcified tissue to evaluate growth disorder (“Modern Bone Histomorphometry”, 2014, WENET, Inc.).
In FIG. 10-1(B), the part labeled in parallel to the growth cartilage and at a distal position represents the region labeled 2 days before euthanasia (white lower arrow), and the part labeled in parallel and at a further distal position represents the region labeled 5 days before euthanasia (white upper arrowhead). The bone growth rate was evaluated on the basis of the distance between the two labeled regions.

osteoclasts [13] = assay: TRACP staining of osteoclasts in the primary spongiosa region, pediatric steroid-induced osteoporosis model rats; settings: GC model rats, proximal tibia, age of 12 weeks, vs. GC group (ALN also vs. Sham group)
Procedure: as §1, §2, §14
(§16) 6 weeks after the start of administration (age of 6 weeks to age of 12 weeks). After the end of the period (age of 12 weeks), the animals were euthanized, and evaluation was performed. […]

[14] = Bone mass (micro-CT, bone microstructure analysis) and BMD (DXA) of the distal femur, pediatric steroid-induced osteoporosis model rats; settings: GC model rats, age of 12 weeks
Procedure: (3) Experimental Group (n=10 in Each Group) (i) Sham group: Sham-operation+Vehicle (PBS) (subcutaneous administration) (ii) GC group: Prednisolone (PSL) pellet 25 mg/pellet/60 days-subcutaneous implantation (GC)+Vehicle (PBS) (subcutaneous administration) (iii) GC+Siglec-15Ab group: GC treatment was performed, and an anti-Siglec-15 antibody was subcutaneously administered once every 3 weeks at a dosage of 1 mg/kg (low dosage) or at a dosage of 10 mg/kg (high dosage). […] (iv) GC+ALN group: GC treatment was performed, and ALN was subcutaneously administered twice a week at a dosage of 0.014 mg/kg (low dosage) or at a dosage of 0.140 mg/kg (high dosage).
BMD and BMC measurements of the lumber vertebra and the distal left femur were performed by a DXA method using a bone densitometer (manufactured by Hitachi Medical, Ltd.).

[15] = Compression test of the distal femur end, pediatric steroid-induced osteoporosis model rats; settings: GC model rats, age of 12 weeks, vs. GC group
Procedure: as §1, §2, §14, §16

[16] = proximal tibia, age of 12 weeks, vs. Ct1 group
[17] = lumber vertebra, age of 12 weeks
[18] = distal femur metaphysis compression test
[19] = lumber vertebra compression test
[20] = age of 6 weeks to 12 weeks, vs. GC group
[21] = high-dosage administration group
[22] = proximal tibia, age of 12 weeks, vs. Sham, GC and GC+Siglec-15 Ab groups

## C[C@]12C=CC(=O)C=C1CC[C@@H]1[C@@H]2[C@@H](O)C[C@@]2(C)[C@H]1CC[C@]2(O)C(=O)CO [prednisolone, Prednisolone]
Serum TRACP-5b [1]; GC group (prednisolone pellet + vehicle)
  increase of the level of TRACP-5b: 75%
[2]
  maximum stress of the femur: decreased
  maximum stress of the lumber vertebra: decreased
[2]; 6-week-old female rat
  femur BMD: decreased

## NCCCC(O)(P(=O)(O)O)P(=O)(O)O [ALN, Alendronate]
[3]
  femur length: decreased
  head trunk length: decreased
Serum TRACP-5b [4]
  serum TRACP-5b level: decreased depending on the dosage
Serum osteocalcin [5]
  serum osteocalcin level: not significantly different
[6]; age of 12 weeks, ALN particularly high dosage
  growth cartilage plate width (3D-CT image): decreased
[6]; age of 12 weeks, vs. Ct1 group, ALN particularly high dosage
  shape of the proximal tibia in 3D-CT images: cup-like shape
[6]; proximal tibia, age of 12 weeks
  arrangement of safranine O staining positive growth cartilage regions: disordered arrangement
[6]; [16]
  growth cartilage width (tissue sample): decreased; also recorded: significantly inferior
  safranine O staining positive regions in the bone in the primary spongiosa region: expanded
[6]; proximal tibia, calcein labeling 7 and 3 days before euthanasia, vs. Ct1 group
  bone growth rate: low bone growth rate; also recorded: significantly inferior
Osteoclasts [7]; lumber vertebra
  number of TRACP positive cells in the secondary spongiosa region: decreased
Osteoclasts [7]; proximal tibia
  number of TRACP positive cells in primary spongiosa region: evidently decreased
  number of TRACP positive cells in secondary spongiosa region: decreased
[8]; distal femur, age of 12 weeks
  BMD value (DXA): increased depending on the dosage
  trabecular bone mass (3D-CT): increased depending on the dosage
[8]; long bone, particularly high-dosage group
  bone trabecular thickness (histological): increased
[8]; [17]
  bone mass in the primary spongiosa (3D-CT): particularly increased
  BMD value (DXA): increased depending on the dosage
  trabecular bone mass (3D-CT): increased depending on the dosage
[9]; [18]
  stiffness: increased in a dosage-dependent manner
  toughness: increased in a dosage-dependent manner
  ultimate load: increased in a dosage-dependent manner
[9]; [19]
  stiffness: significantly increased
  ultimate load: significantly increased
[10]; [20]
  amount of change in body weight: no significant difference
  amount of change in femur length: no significant difference
  amount of change in head trunk length: no significant difference
[10]; [21]
  femur length: tended to decrease
  head trunk length: tended to decrease
Serum TRACP-5b [1]; GC model rats, in contrast to GC group
  serum TRACP-5b level: significantly decreased
Serum osteocalcin [11]
  serum osteocalcin level: not significantly different
[12]; age of 12 weeks, vs. Sham group, ALN high dosage
  shape of the proximal tibia in 3D-CT images: cup-like (cupping) shape
[12]; [22]
  growth cartilage width: tended to slightly decrease, but was not statistically significantly different
  safranine O staining positive regions (cartilage matrix) in the bone in the primary spongiosa region: more safranine O staining positive (red) regions
[12]; proximal tibia, tetracycline/calcein labeling, among Sham, GC and treated groups
  bone growth rate: no significant difference
Osteoclasts [13]
  number of TRACP positive cells in the primary spongiosa region: significantly decreased
[14]; vs. GC group
  BMD of the distal femur (DXA): increased in a dosage-dependent manner
[14]; distal femur metaphysis
  bone mass (3D-CT), region immediately above the growth plate to the proximal femur: increased in a dosage-dependent manner
[14]; secondary spongiosa region of distal femur, vs. GC group, ALN high dosage
  bone mass (BV/TV): significantly increased
[15]
  maximum stress: tended to increase, and were not significantly different
  toughness: tended to increase, and were not significantly different
